Laboratory results taken from patent US20120178738A1, “DIBENZO [B,F] [1,4]OXAZAPINE COMPOUNDS” (ARYX THERAPEUTICS, INC., priority 2007, published 2012).
Like-named read-outs stand apart in the source and are kept apart here.

Key:
human M1 receptors = target: T1, human M1 receptors (Homo sapiens, UniProt P11229); test: hM1 receptor radioligand binding ([3H]NMS); conditions: pKi reported on a scale of 1 through 5
T1 construct: expressed in transfected cells; host or cells: Chinese hamster ovary cells (membranes)
T1 sequence (P11229 1-460): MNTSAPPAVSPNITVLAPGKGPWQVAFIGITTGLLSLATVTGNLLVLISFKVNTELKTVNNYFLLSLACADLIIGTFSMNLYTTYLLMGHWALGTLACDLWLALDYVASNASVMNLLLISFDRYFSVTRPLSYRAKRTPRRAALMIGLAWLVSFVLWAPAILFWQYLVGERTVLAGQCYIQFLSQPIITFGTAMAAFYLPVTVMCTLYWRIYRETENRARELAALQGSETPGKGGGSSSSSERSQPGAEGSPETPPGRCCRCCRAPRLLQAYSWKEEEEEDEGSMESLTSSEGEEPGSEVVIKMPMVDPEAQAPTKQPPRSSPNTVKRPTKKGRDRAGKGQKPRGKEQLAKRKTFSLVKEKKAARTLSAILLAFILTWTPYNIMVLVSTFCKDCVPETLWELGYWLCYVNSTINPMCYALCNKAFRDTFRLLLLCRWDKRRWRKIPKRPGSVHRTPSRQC
Procedure, shortened: (§1)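 Displacement of one fixed radioligand concentration by graded test compound concentrations was measured in receptor-bearing tissue or plasma membrane fractions at equilibrium. Filtration removed displaced radioligand. Concentration-response data, after subtracting nonspecific binding measured with a reference blocker, were used to derive affinity.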

[1] = target: T2, human D2L dopamine receptors (Homo sapiens, UniProt P14416); test: hD2L receptor radioligand binding ([3H]spiperone)
T2 construct: expressed in transfected cells; host or cells: insect Sf9 cells (membranes)
T2 sequence (P14416 whole entry): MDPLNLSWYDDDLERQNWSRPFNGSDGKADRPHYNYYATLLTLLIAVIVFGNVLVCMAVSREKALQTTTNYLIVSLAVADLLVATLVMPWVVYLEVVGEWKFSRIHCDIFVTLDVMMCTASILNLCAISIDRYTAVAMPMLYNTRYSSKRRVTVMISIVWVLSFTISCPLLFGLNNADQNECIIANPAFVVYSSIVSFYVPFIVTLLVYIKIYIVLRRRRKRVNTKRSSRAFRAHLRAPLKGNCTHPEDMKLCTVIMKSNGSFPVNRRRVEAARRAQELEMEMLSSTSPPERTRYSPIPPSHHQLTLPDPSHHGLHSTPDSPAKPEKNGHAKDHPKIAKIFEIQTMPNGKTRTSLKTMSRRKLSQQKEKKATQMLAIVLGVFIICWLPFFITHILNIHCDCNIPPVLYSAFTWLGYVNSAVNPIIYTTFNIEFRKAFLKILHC
Protocol: (§2) Consistent with standard competition radioligand binding assays, the methodology was based on displacement of radioligand from tissues (or cell lines) bearing the receptor of interest (Cheng, Y. and Prusoff, W. H. (1973). Biochem. Pharmacol. 22, 3099-3108). The measurements were based on the binding of a single concentration of radiolabeled ligand in the presence of various concentrations of unlabeled ligand.
(§3) Tissues (or cellular plasma membrane fractions) were incubated in the presence of radioligand at equilibrium and in the presence of a range of concentrations of the test compounds (which were non-radiolabeled), and the displaced radioligand was separated from the membranes by filtration. Nonspecific binding was assessed by measuring displacement of the radioligand in the presence of a compound known to block binding of the radioligand to the receptor. Finally, the concentration-response relationship for radioligand displacement (corrected for non-specific binding) was used to assess binding of the test compound to the receptor.

human 5HT1A receptors = target: T3, human 5HT1A receptors (Homo sapiens, UniProt P08908); test: h5-HT1A receptor radioligand binding ([3H]8OH-DPAT); conditions: pKi reported on a scale of 1 through 5
T3 construct: expressed in transfected cells; host or cells: Chinese hamster ovary cells (membranes)
T3 sequence (P08908 1-422): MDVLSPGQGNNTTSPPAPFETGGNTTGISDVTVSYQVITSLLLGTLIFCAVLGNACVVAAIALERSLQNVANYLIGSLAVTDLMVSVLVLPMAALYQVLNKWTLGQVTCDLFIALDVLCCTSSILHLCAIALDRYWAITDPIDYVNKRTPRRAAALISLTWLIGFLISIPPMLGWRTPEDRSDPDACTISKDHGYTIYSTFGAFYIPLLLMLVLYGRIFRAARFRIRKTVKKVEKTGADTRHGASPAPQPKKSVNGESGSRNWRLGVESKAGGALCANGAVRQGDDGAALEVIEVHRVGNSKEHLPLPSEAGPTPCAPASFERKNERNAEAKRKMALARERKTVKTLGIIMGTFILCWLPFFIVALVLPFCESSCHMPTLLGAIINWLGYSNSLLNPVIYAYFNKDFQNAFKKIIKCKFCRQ
Procedure, shortened: as §1

[2] = target: T4, human D2s dopamine receptors (Homo sapiens, UniProt P14416); test: hD2S receptor radioligand binding ([3H]spiperone); conditions: pKi reported on a scale of 1 through 5
T4 construct: expressed in transfected cells; host or cells: Chinese hamster ovary cells (membranes)
T4 sequence (P14416 1-414 isoform P14416-2): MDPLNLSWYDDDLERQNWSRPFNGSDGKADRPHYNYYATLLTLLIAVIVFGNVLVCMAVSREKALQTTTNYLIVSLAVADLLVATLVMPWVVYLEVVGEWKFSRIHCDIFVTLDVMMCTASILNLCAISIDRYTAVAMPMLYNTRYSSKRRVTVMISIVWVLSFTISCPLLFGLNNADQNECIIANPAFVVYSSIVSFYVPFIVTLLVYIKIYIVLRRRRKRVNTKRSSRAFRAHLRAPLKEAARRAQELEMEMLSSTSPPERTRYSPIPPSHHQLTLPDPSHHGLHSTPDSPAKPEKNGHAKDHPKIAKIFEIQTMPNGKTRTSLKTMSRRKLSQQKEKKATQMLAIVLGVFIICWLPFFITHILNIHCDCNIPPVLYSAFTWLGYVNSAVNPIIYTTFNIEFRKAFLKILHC
Procedure, shortened: as §1

human M3 receptors = target: T5, human M3 receptors (Homo sapiens, UniProt P20309); test: hM3 receptor radioligand binding ([3H]NMS)
T5 construct: expressed in transfected cells; host or cells: Chinese hamster ovary cells (membranes)
T5 sequence (P20309 whole entry): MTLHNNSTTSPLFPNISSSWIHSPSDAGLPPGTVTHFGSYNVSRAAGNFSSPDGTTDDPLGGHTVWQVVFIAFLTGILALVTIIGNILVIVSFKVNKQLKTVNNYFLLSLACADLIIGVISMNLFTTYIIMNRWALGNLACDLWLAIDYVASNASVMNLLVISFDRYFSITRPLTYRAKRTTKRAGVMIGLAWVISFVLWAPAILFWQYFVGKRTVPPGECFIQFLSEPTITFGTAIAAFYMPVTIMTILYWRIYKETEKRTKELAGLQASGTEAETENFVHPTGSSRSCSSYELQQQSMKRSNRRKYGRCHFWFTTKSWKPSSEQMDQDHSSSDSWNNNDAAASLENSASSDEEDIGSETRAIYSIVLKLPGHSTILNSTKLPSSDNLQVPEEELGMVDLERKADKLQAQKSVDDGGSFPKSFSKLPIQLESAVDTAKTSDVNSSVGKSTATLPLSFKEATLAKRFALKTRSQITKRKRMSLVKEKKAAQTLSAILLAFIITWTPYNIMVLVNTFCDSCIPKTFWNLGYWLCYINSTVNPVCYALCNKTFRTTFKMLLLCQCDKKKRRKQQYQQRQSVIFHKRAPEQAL
Protocol: as §2, §3

5-HT2A receptor = target: T6, 5-HT2A receptor (Rattus norvegicus, UniProt P14842); test: cell-based
T6 construct: Eight strips of tissue (0.5 cm long) were cut. and were mounted in 10 ml organ baths; tissue Charles River Laboratories; host or cells: rat aorta strips, endothelium removed
T6 sequence (P14842 whole entry): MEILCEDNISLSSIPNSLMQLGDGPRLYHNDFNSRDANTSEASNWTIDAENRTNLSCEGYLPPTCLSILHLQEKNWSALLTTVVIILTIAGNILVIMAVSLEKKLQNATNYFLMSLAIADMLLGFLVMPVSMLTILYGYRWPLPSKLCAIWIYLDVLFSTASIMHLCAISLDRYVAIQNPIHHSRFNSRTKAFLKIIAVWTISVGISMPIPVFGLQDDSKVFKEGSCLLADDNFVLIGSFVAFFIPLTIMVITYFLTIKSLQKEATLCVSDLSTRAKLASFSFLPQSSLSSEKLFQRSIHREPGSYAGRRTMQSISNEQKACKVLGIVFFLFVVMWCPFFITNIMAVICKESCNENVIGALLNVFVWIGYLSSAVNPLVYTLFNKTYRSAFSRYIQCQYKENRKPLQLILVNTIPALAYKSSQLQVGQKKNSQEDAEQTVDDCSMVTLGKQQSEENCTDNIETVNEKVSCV
Procedure, shortened: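 Agonist EC50 and antagonist pKB or pA2 values come from curves fitted by Parker–Waud and from EC50 concentration-ratios with versus without antagonist. Tissue: rat aorta strips, endothelium removed, 37° C Krebs pH 7.4 with 95% O2/5% CO2, 2 g tension; response as % of 5-HT maximum.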

human 5HT2C receptors = target: T7, human 5HT2C receptors (Homo sapiens, UniProt P28335); test: h5-HT2C receptor radioligand binding ([3H]Mesulergine); conditions: pKi reported on a scale of 1 through 5
T7 construct: expressed in transfected cells; host or cells: human embryo kidney cells (membranes)
T7 sequence (P28335 33-458): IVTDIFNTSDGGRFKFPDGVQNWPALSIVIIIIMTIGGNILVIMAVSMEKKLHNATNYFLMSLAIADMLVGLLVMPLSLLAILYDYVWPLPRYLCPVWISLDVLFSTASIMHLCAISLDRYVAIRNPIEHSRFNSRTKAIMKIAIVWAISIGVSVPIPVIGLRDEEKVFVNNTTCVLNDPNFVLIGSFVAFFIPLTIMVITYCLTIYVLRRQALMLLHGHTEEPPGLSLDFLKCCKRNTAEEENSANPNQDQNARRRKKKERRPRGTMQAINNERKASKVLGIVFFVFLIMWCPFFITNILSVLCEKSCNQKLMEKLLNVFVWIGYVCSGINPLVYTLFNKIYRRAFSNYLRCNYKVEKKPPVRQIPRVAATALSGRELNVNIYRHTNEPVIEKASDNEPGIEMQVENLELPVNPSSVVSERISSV
Procedure, shortened: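 Test compound affinity was derived from concentration-dependent displacement of fixed [3H]mesulergine at equilibrium, after subtracting nonspecific binding measured with a reference blocker. Bound and free radioligand were separated by filtration of tissue or plasma-membrane preparations.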

human 5HT7 receptors = target: T8, human 5HT7 receptors (Homo sapiens, UniProt P34969); test: h5-HT7 receptor radioligand binding ([3H]5-CT)
T8 construct: expressed in transfected cells; host or cells: Chinese hamster ovary cells (membranes)
T8 sequence (P34969 whole entry): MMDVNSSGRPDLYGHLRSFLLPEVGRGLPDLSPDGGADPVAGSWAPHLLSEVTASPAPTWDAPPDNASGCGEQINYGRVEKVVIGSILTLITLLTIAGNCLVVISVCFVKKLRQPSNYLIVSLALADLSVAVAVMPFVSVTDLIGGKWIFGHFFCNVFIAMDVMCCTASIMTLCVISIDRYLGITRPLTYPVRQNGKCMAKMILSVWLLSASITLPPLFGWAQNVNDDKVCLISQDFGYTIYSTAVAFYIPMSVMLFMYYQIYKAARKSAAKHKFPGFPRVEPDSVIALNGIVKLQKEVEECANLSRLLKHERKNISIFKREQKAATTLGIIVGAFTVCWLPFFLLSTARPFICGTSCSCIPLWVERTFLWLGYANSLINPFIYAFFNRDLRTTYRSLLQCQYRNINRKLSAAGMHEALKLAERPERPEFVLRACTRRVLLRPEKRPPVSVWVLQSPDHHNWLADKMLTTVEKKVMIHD
Protocol: as §2, §3

human H1 receptors = target: T9, human H1 receptors (Homo sapiens, UniProt P35367); test: hH1 receptor radioligand binding ([3H]Pyrilamine); conditions: pKi reported on a scale of 1 through 5
T9 construct: expressed in transfected cells; host or cells: Chinese hamster ovary cells (membranes)
T9 sequence (P35367 whole entry): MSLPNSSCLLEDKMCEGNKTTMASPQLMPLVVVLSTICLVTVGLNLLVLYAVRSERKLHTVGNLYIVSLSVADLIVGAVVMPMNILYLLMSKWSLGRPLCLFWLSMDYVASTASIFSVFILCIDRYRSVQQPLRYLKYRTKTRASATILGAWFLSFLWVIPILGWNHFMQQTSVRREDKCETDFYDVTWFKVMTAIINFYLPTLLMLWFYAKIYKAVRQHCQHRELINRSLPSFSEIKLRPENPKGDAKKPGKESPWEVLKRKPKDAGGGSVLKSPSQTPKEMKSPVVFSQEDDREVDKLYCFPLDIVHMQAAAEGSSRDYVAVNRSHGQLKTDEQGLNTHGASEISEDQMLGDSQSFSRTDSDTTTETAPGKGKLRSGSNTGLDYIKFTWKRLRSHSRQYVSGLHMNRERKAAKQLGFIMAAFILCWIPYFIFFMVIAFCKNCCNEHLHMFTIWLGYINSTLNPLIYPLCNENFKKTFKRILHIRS
Procedure, shortened: as §1

[3] = pKi reported on a scale of 1 through 5, read-out: D2L (pKi) (converted)
[4] = pKi reported on a scale of 1 through 5, read-out: M3 (pKi) (converted)
[5] = read-out: 5HT2A (pKb) (converted)
[6] = pKi reported on a scale of 1 through 5, read-out: 5HT7 (pKi) (converted)

Structure (SMILES)	Ki (human M1 receptors)	Ki [1, 3]	Ki (human 5HT1A receptors)	Ki [2]	Ki (human M3 receptors; [4])	Kb (5-HT2A receptor; [5])	Ki (human 5HT2C receptors)	Ki (human 5HT7 receptors; [6])	Ki (human H1 receptors)	Ki [1]	Ki (human M3 receptors)	Kb (5-HT2A receptor)	Ki (human 5HT7 receptors)	Kb (5-HT2A receptor; pKb reported on a scale of 1 through 5, read-out: 5HT2A (pKb) (converted))
O=C(C[C@H]1CN(C2=Nc3cc(Cl)ccc3Oc3ccccc32)CCN1)N1CCOCC1 [GG, (S,E)-2-(4-(8-chlorodibenzo[b,f][1,4]oxazepin-11-yl)piperazin-2-yl)-1-morpholinoethanone]	1.26 to 2.45 µM	2.51 to 9.77 µM	0.01 to 0.0977 µM	2.51 to 9.77 µM	7.94 to 9.77 µM	0.00316 to 0.00977 µM	0.01 to 0.0977 µM	0.631 to 1.55 µM	≤ 0.00977 µM					
O=C(C[C@H]1CN(C2=Nc3cc(Cl)ccc3Oc3ccccc32)CCN1)O[C@H]1CN2CCC1CC2 [DT, (R)-quinuclidin-3-yl 2-((S)-4-((E)-8-chlorodibenzo[b,f][1,4]oxazepin-11-yl)piperazin-2-yl)acetate]	5.01 to 9.77 µM		0.1 to 0.977 µM	> 10 µM			0.1 to 0.977 µM		1 to 9.77 µM	> 10 µM	> 10 µM	> 0.1 µM	> 10 µM	
CCCN(CCO)C(=O)C[C@H]1CN(C2=Nc3cc(Cl)ccc3Oc3ccccc32)CCN1 [EZ, (S,E)-2-(4-(8-chlorodibenzo[b,f][1,4]oxazepin-11-yl)piperazin-2-yl)-N-(2-hydroxyethyl)-N-propylacetamide]	> 10 µM	2.51 to 9.77 µM	≤ 0.00977 µM	2.51 to 9.77 µM	> 10 µM	0.0316 to 0.0977 µM	0.01 to 0.0977 µM	0.631 to 1.55 µM	0.01 to 0.0977 µM					
COC(=O)CC1CN(C2=Nc3cc(C(F)(F)F)ccc3Oc3ccccc32)CCN1 (stereo not drawn) [DQ, (E)-methyl 2-(4-(8-(trifluoromethyl)dibenzo[b,f][1,4]oxazepin-11-yl)piperazin-2-yl)acetate]	> 10 µM	2.51 to 9.77 µM	0.1 to 0.977 µM	2.51 to 9.77 µM	> 10 µM		0.1 to 0.977 µM	3.98 to 9.77 µM	1 to 9.77 µM					> 0.1 µM
O=C(C[C@H]1CN(C2=Nc3cc(Cl)ccc3Oc3ccccc32)CCN1)NC[C@@H]1CCCO1 [FR, 2-((S)-4-((E)-8-chlorodibenzo[b,f][1,4]oxazepin-11-yl)piperazin-2-yl)-N-(((S)-tetrahydrofuran-2-yl)methyl)acetamide]	> 10 µM	0.158 to 0.617 µM	0.01 to 0.0977 µM	0.158 to 0.617 µM	> 10 µM	0.00316 to 0.00977 µM	0.01 to 0.0977 µM	0.631 to 1.55 µM	0.01 to 0.0977 µM					
O=C(C[C@H]1CN(C2=Nc3cc(Cl)ccc3Oc3ccccc32)CCN1)NCCO [FA, (S,E)-2-(4-(8-chlorodibenzo[b,f][1,4]oxazepin-11-yl)piperazin-2-yl)-N-(2-hydroxyethyl)acetamide]	> 10 µM	0.631 to 2.45 µM	0.01 to 0.0977 µM	0.631 to 2.45 µM	> 10 µM	0.00316 to 0.00977 µM	0.01 to 0.0977 µM	0.631 to 1.55 µM	0.01 to 0.0977 µM					
O=C(C[C@H]1CN(C2=Nc3cc(Cl)ccc3Oc3ccccc32)CCN1)NCCCO [Compound FS, (S,E)-2-(4-(8-chlorodibenzo[b,f][1,4]oxazepin-11-yl)piperazin-2-yl)-N-(3-hydroxypropyl)acetamide]	> 10 µM	0.631 to 2.45 µM	0.01 to 0.0977 µM	0.631 to 2.45 µM	> 10 µM	0.00316 to 0.00977 µM	0.01 to 0.0977 µM	< 0.617 µM	≤ 0.00977 µM					
COCCCNC(=O)C[C@H]1CN(C2=Nc3cc(Cl)ccc3Oc3ccccc32)CCN1 [GD, (S,E)-2-(4-(8-chlorodibenzo[b,f][1,4]oxazepin-11-yl)piperazin-2-yl)-N-(3-methoxypropyl)acetamide]	> 10 µM	0.631 to 2.45 µM	0.01 to 0.0977 µM	0.631 to 2.45 µM	> 10 µM	0.01 to 0.0309 µM	0.01 to 0.0977 µM	0.631 to 1.55 µM	0.01 to 0.0977 µM					
COC(=O)C[C@H]1CN(C2=Nc3cc(Cl)ccc3Oc3ccccc32)CCN1 [Compound N, (S,E)-methyl 2-(4-(8-chlorodibenzo[b,f][1,4]oxazepin-11-yl)piperazin-2-yl)acetate]	5.01 to 9.77 µM	0.631 to 2.45 µM	0.1 to 0.977 µM	0.631 to 2.45 µM	> 10 µM	0.00316 to 0.00977 µM	0.01 to 0.0977 µM	0.631 to 1.55 µM	0.1 to 0.977 µM					
O=C(C[C@H]1CN(C2=Nc3cc(Cl)ccc3Oc3ccccc32)CCN1)O[C@@H]1CN2CCC1CC2 [DU, (S)-quinuclidin-3-yl 2-((S)-4-((E)-8-chlorodibenzo[b,f][1,4]oxazepin-11-yl)piperazin-2-yl)acetate]	5.01 to 9.77 µM		0.01 to 0.0977 µM	2.51 to 9.77 µM			0.1 to 0.977 µM		0.1 to 0.977 µM	2.51 to 9.77 µM	> 10 µM	> 0.1 µM	3.98 to 9.77 µM	
